Experimental findings from ChEMBL document CHEMBL1921695, “Cembranolides from the leaves of Croton gratissimus” (J Nat Prod, 2011) are described below.

Broadly, the IC50 is the concentration at which inhibition is half-maximal.

This test deals with Plasmodium falciparum. Description: Antiplasmodial activity against chloroquine-sensitive Plasmodium falciparum D10 infected in human erythrocytes after 3 to 4 days by lactate dehydrogenase assay. The test is classed as functional, organism-based.

≈ marks a conversion by molar mass, not a printed value.

Take `C/C1=C\CC[C@](C)(O)/C=C/[C@@H](C(C)C)CCC2=C[C@@H](C1)OC2=O` (relative stereo): the IC50 came to 20.8 µg/mL (≈ 65.3 µM). Turning to `C=C1C[C@@H]2C=C(CC[C@](O)(C(C)C)/C=C/[C@@](C)(O)CC[C@H]1OC(C)=O)C(=O)O2` (relative stereo), the 50% inhibitory concentration (IC50) was 13.5 µg/mL (≈ 34.4 µM).
